Patent publication US7223580B2, “N-acetylglucosamine transferase, nucleic acid encoding the same and use thereof in diagnosing cancer and/or tumor” (National Institute of Advanced Industrial Science and …, priority 2002, dated 2007)

Biological target: T1, β3GnT-7 (Homo sapiens, UniProt Q8NFL0)
T1 construct: made in house; host or cells: Sf21 insect cells (baculovirus, Bac-to-Bac); purified from culture supernatant on anti-M1 (anti-FLAG) resin
T1 sequence (Q8NFL0 75-401): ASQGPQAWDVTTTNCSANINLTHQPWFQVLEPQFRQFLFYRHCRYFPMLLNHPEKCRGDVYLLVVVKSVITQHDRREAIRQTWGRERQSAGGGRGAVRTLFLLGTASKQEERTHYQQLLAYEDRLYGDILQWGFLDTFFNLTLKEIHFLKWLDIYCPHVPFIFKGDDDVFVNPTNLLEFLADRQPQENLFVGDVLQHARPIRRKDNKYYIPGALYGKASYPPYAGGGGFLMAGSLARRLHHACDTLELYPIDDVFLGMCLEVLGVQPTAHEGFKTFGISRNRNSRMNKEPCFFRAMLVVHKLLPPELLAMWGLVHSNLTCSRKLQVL
Experiment: Search of acceptor substrate of β3Gn-T7 (UDP-[14C]GlcNAc transfer, TLC radioactivity)
Format: biochemical
Settings: acceptor substrate 10 nmol, donor UDP-GlcNAc 480 μM, 37° C. for 5 hours, pH7.2
Description: Using the following reaction systems, the acceptor substrate was searched. As the “acceptor substrate” in the reaction solution described below, each of the following was used and whether each of them functioned as the acceptor or not was investigated: pNp-α-Glc, pNp-β-Glc, pNp-α-GlcNAc, pNp-β-GlcNAc, pNp-α-Gal, pNp-β-Gal, pNp-α-GalNAc, Bz-α-GalNAc, pNp-α-Xyl, pNp-β-Xyl, pNp-α-Fuc, Bz-α-Man, Bz-α-ManNAc, LacCer, GalCer typel and Bz-β-lactoside (all of them are from SIGMA) and Galβ1-4GlcNAc-α-pNp (TRONTO RESEARCH CHEMICAL).
The reaction solution (the numbers in the parentheses indicate the final concentrations) contained acceptor substrate (10 nmol), sodium cacodylate buffer (pH7.2) (50 mM), Triton CF-54 (trademark) (0.4%), MnCl2 (10 mM), UDP-GlcNAC (480 μM) and UDP-[^14C]GlcNAC (175 nCi) and CDP-colline (5 mM), to which 10 μl of the β3Gn-T7 enzyme solution and H2O were added to attain a final volume of 25 μl.
The reaction mixture was allowed to react at 37° C. for 5 hours, and after completion of the reaction, 200 μl of 0.1 M KCl was added, followed by light centrifugation and collection of the supernatant. […] After developing the mixture up to 5 mm from the top end of the TLC plate, the plate was dried and the intensity of the radioactivity taken in the product was measured using Bio Image Analyzer FLA3000 (FUJI PHOTO FILM).

whether it functioned as the acceptor (transfer of GlcNAc by β3GnT-7) | SMILES
activity to transfer GlcNAc | OC[C@H]1O[C@@H](O[C@H]2[C@H](O)[C@@H](O)[C@H](OCc3ccccc3)O[C@@H]2CO)[C@H](O)[C@@H](O)[C@H]1O [Bz-β-lactoside]
activity to transfer GlcNAc | CC(=O)N[C@H]1[C@@H](Oc2ccc([N+](=O)[O-])cc2)O[C@H](CO)[C@@H](O[C@@H]2O[C@H](CO)[C@H](O)[C@H](O)[C@H]2O)[C@@H]1O [Galβ1-4Glc(NAc)-α-pNp, Galβ1-4GlcNAc-α-pNp]
